The text below walks through data of the Biogen ADME set (Fang et al. 2023).

Each structure is given as a SMILES string. ≈ marks a conversion by molar mass, not a printed value.

The conditions of this data set: for aqueous solubility: pH 6.8.

Turning to `COc1cc2nc(/C=C/c3cocn3)sc2cc1OC`, the MDR1-MDCK efflux ratio was found to be 0.504; the intrinsic clearance, human liver microsomes turned out to be 11.4 mL/min/kg; the intrinsic clearance, rat liver microsomes is 74.5 mL/min/kg; the aqueous solubility amounted to 12.4 µg/mL (≈ 42.9 µM).

Take `O=C(NC1CCNCC1)c1ccc2[nH]ncc2c1`: the MDR1-MDCK efflux ratio came out at 0.239; the fraction unbound, human plasma is 0.696; the fraction unbound, rat plasma was found to be 0.845; the intrinsic clearance, human liver microsomes stood at 25.9 mL/min/kg.

For the molecule `Cc1nsc(Nc2ccccc2)c1C#N`, the MDR1-MDCK efflux ratio was found to be 0.367; the intrinsic clearance, human liver microsomes came to 300 mL/min/kg; the intrinsic clearance, rat liver microsomes is 782 mL/min/kg.

In turn, `Cc1cc(C)nc(SCC(=O)N2c3ccccc3C(C)(c3ccc(Cl)cc3)CC2(C)C)n1` (stereo unspecified) had an intrinsic clearance, human liver microsomes of 1040 mL/min/kg and an intrinsic clearance, rat liver microsomes of 2110 mL/min/kg.

For `O=C(Nc1nc2cc(C(F)(F)F)cc(NC3CC3)n2n1)c1cccnc1`, the MDR1-MDCK efflux ratio was found to be 2.35; the intrinsic clearance, human liver microsomes is at most 4.74 mL/min/kg; the intrinsic clearance, rat liver microsomes came out at 39.6 mL/min/kg; the aqueous solubility was 1.1 µg/mL (≈ 3.04 µM).

For `Cc1cc(F)ccc1-c1nc(CCn2c(C)nc3ccccc32)no1`, the MDR1-MDCK efflux ratio was 0.696; the intrinsic clearance, human liver microsomes turned out to be 398 mL/min/kg; the intrinsic clearance, rat liver microsomes was found to be 1800 mL/min/kg.

As for `O=C(CCN1C(=O)CCC1=O)Nc1cccc2ncccc12`, the MDR1-MDCK efflux ratio worked out at 11.3; the intrinsic clearance, human liver microsomes is at most 4.74 mL/min/kg; the intrinsic clearance, rat liver microsomes was at most 10.7 mL/min/kg; the aqueous solubility was determined as 45.2 µg/mL (≈ 152 µM).

As for `O=C(NC1CC1)c1cccnc1Oc1ccccc1`, the MDR1-MDCK efflux ratio was found to be 0.592; the intrinsic clearance, human liver microsomes was at most 4.74 mL/min/kg; the intrinsic clearance, rat liver microsomes was 11.7 mL/min/kg; the aqueous solubility stood at 65.2 µg/mL (≈ 257 µM).

`CCOC(=O)c1cccnc1-c1ccc2[nH]ccc2c1`: the MDR1-MDCK efflux ratio worked out at 0.599; the intrinsic clearance, human liver microsomes was determined as 86.4 mL/min/kg; the intrinsic clearance, rat liver microsomes was 695 mL/min/kg; the aqueous solubility is 36.8 µg/mL (≈ 138 µM).

For the molecule `O=c1[nH]c2ccccc2n1C1CCN(Cc2csc(COc3ccc(F)cc3)n2)CC1`, the intrinsic clearance, human liver microsomes was determined as 209 mL/min/kg and the intrinsic clearance, rat liver microsomes was 1090 mL/min/kg.

As for `Cc1nc(C2CCN(CC(N)=O)CC2)no1`, the intrinsic clearance, human liver microsomes is at most 4.74 mL/min/kg; the intrinsic clearance, rat liver microsomes is at most 10.7 mL/min/kg; the aqueous solubility is 61.4 µg/mL (≈ 274 µM).

For `Fc1ccc(-c2nnc(CN3CCC(c4c[nH]c5ccccc45)CC3)o2)cc1`, the intrinsic clearance, human liver microsomes is 29.3 mL/min/kg; the intrinsic clearance, rat liver microsomes was determined as 230 mL/min/kg; the aqueous solubility is 8 µg/mL (≈ 21.3 µM).

For `O=C(CCc1nnc(-c2ccsc2)o1)N1CCCc2cc(F)c(F)cc21`, the MDR1-MDCK efflux ratio stood at 0.866; the intrinsic clearance, human liver microsomes stood at 108 mL/min/kg; the intrinsic clearance, rat liver microsomes was 1980 mL/min/kg; the aqueous solubility came out at 2.08 µg/mL (≈ 5.54 µM).

With `CN1CCC(N(Cc2cccnc2)C(=O)NCCCc2ccccc2)CC1`, the MDR1-MDCK efflux ratio was 131; the intrinsic clearance, human liver microsomes turned out to be 6.28 mL/min/kg; the intrinsic clearance, rat liver microsomes was determined as 1140 mL/min/kg.

On to `COCCc1nc(CCCn2cccn2)n(C2Cc3ccccc3C2)n1`, for which the MDR1-MDCK efflux ratio worked out at 9.86; the intrinsic clearance, human liver microsomes is 25.1 mL/min/kg; the intrinsic clearance, rat liver microsomes worked out at 550 mL/min/kg; the aqueous solubility came out at 21.4 µg/mL (≈ 60.9 µM).

In the case of `CN(CCNC(=O)NC1CCOCC1)C1CCCC1`, the MDR1-MDCK efflux ratio is 18.2; the intrinsic clearance, human liver microsomes is at most 4.74 mL/min/kg; the intrinsic clearance, rat liver microsomes came out at 184 mL/min/kg.

Take `Cc1ccc(CCC(=O)Nc2nccc3sccc23)o1`: the MDR1-MDCK efflux ratio stood at 0.465; the intrinsic clearance, human liver microsomes was 66.2 mL/min/kg; the intrinsic clearance, rat liver microsomes worked out at 1140 mL/min/kg.

For `CON(C)C(=O)c1cccc2c(C)c(C)[nH]c12`, the MDR1-MDCK efflux ratio came to 0.476; the intrinsic clearance, human liver microsomes turned out to be 113 mL/min/kg; the intrinsic clearance, rat liver microsomes is 196 mL/min/kg; the aqueous solubility was 31.5 µg/mL (≈ 136 µM).

Consider `CCOc1cccc(-c2cccc(N)n2)c1`, for which the MDR1-MDCK efflux ratio came to 0.559; the intrinsic clearance, human liver microsomes was found to be 237 mL/min/kg; the intrinsic clearance, rat liver microsomes is 556 mL/min/kg.

With `Cc1n[nH]c(C)c1Cc1ccc(NCCC(C)C)cc1`, the MDR1-MDCK efflux ratio worked out at 0.61; the intrinsic clearance, human liver microsomes was at most 4.74 mL/min/kg; the intrinsic clearance, rat liver microsomes is 484 mL/min/kg; the aqueous solubility was 14.7 µg/mL (≈ 54.2 µM).

Turning to `CN(Cc1cccc(C#N)c1)c1cnc2ccccc2n1`, the MDR1-MDCK efflux ratio came out at 0.442; the intrinsic clearance, human liver microsomes is 75.3 mL/min/kg; the intrinsic clearance, rat liver microsomes worked out at 477 mL/min/kg; the aqueous solubility came out at 11.8 µg/mL (≈ 43.2 µM).

`Cc1cnccc1-c1cnc(N(C)C)nc1-c1ccco1`: the MDR1-MDCK efflux ratio amounted to 0.636; the intrinsic clearance, human liver microsomes came to 140 mL/min/kg; the intrinsic clearance, rat liver microsomes stood at 2250 mL/min/kg.

With `COc1ccccc1CNc1n[nH]c2nc([C@H]3CCCN(CC(=O)N4CCCC4)C3)ccc12`, the MDR1-MDCK efflux ratio was 43.9; the intrinsic clearance, human liver microsomes stood at 22.9 mL/min/kg; the intrinsic clearance, rat liver microsomes was found to be 422 mL/min/kg; the aqueous solubility stood at 54.9 µg/mL (≈ 122 µM).

Turning to `COc1cccc(CNc2ncc(-c3ccccc3)n2C)c1`, the MDR1-MDCK efflux ratio is 0.539; the intrinsic clearance, human liver microsomes worked out at 938 mL/min/kg; the intrinsic clearance, rat liver microsomes was 2210 mL/min/kg; the aqueous solubility is 23.5 µg/mL (≈ 80 µM).

For the molecule `O=C(O)c1ccc(CN2CC[C@H](c3nc4cc(Cl)ccc4o3)C2)cc1`, the MDR1-MDCK efflux ratio came to 1.11; the intrinsic clearance, human liver microsomes was at most 4.74 mL/min/kg; the intrinsic clearance, rat liver microsomes is 17.8 mL/min/kg; the aqueous solubility stood at 32.4 µg/mL (≈ 90.8 µM).

As for `Nc1c(F)ccc2cnc(-n3ccc4ccncc43)cc12`, the fraction unbound, human plasma is 0.0517; the fraction unbound, rat plasma was determined as 0.0428; the intrinsic clearance, human liver microsomes stood at 368 mL/min/kg; the intrinsic clearance, rat liver microsomes stood at 2360 mL/min/kg.

As to `O=C(Cn1c(-c2ccc(F)cc2)nc2ccccc21)N1CCOCC1`, the MDR1-MDCK efflux ratio is 12.8; the intrinsic clearance, human liver microsomes was at most 4.74 mL/min/kg; the intrinsic clearance, rat liver microsomes was at most 10.7 mL/min/kg; the aqueous solubility came to 54.6 µg/mL (≈ 161 µM).

`Cc1ccc(-c2ccnc(N3C[C@@H](C)NC[C@@H]3C)n2)c(C)n1`: the MDR1-MDCK efflux ratio stood at 25.7; the intrinsic clearance, human liver microsomes is at most 4.74 mL/min/kg; the intrinsic clearance, rat liver microsomes stood at 78.7 mL/min/kg; the aqueous solubility amounted to 25.9 µg/mL (≈ 87.2 µM).

In turn, `COCCc1ccc(OCC(O)CNC(C)C)cc1` (stereo unspecified) came in with a fraction unbound, rat plasma of 1.

For `CCCc1cc(N2CCc3c(nc(C(C)C)n3C)C2)n2ncnc2n1`, the MDR1-MDCK efflux ratio is 15.2; the intrinsic clearance, human liver microsomes came out at 14.3 mL/min/kg; the intrinsic clearance, rat liver microsomes worked out at 183 mL/min/kg; the aqueous solubility turned out to be 56.4 µg/mL (≈ 166 µM).

For `CC(C)(C)c1ccc(C(O)CN2CCC(O)(c3ccc4c(c3)OCO4)CC2)cc1` (stereo unspecified), the MDR1-MDCK efflux ratio stood at 0.698; the fraction unbound, human plasma came to 0.0601; the intrinsic clearance, human liver microsomes was found to be 45.8 mL/min/kg.

Turning to `CN(C)C(=O)CN1CCN(C(=O)c2ccc3ccccc3c2O)CC1`, the MDR1-MDCK efflux ratio was determined as 2.35; the intrinsic clearance, human liver microsomes was at most 4.74 mL/min/kg; the intrinsic clearance, rat liver microsomes is at most 10.7 mL/min/kg; the aqueous solubility worked out at 43.9 µg/mL (≈ 129 µM).
